# Experiment: Injection of alcian blue solution at the lowest electric resistance point near Jung-Wan, arrival at pancreas observed by stereoscopic microscope
# Format: in vivo
# Conditions: hairless mouse, subcutaneous tissue near Jung-Wan, 0.1 μl a minute for 2 to 3 hours
# Method: For laboratory animals, the hairless mouse (males, about 6 weeks old) supplied from the JungAng Laboratory Animal Company were used. The laboratory animals were managed in a breeding cage with temperature of 23° C. and 60% relative humidity under 12 hour light/dark cycles and supplied with food and water for ad libitum access.
# The hairless mouse living in the above environment was anaesthetized by administering 1.5 g/kg of urethane, and all of the surgical procedures were performed under anesthesia. The hairless mouse under anesthesia were placed on the operating table under the stereoscopic microscope (Olympus SZX12) connected with the computer and the CCD camera.
# Jung-Wan was determined at the middle of the umbilicus and the xiphoid process-sternum junction (JungJeong, one of acupuncture points) along the linea alba of the hairless mouse according to “GolDo method”, which is a method of finding acupuncture points by using its unique measuring units. After Jung-Wan was determined, the point having the lowest electric resistance was found within a radius of 2 mm from Jung-Wan by using the electro acupuncture point detector (Hamtech Korea Co., YNS202-S) and determined as the point into which an alcian blue solution would be injected. […]
substance,measurement,value
alcian blue [alcian blue solution],distribution of the visualizing material in internal organs after injection,dispersed into the threadlike structures penetrating out through the surface of the pancreas

# Reference: patent US8057783B2, “Method of injecting liquid agents at acupuncture points to arrive internal organs and method of visualizing arrival of liquid agents” (Seoul National University Industry Foundation, priority 2007, dated 2011)
